According to patent US10780090B2, “Heteroaryl compounds useful as inhibitors of SUMO activating enzyme” (Millennium Pharmaceuticals, Inc., priority 2014, dated 2020):
pIC50: −log10 of the molar value.

Target: recombinant human SAE enzyme (Homo sapiens (Human), UniProt Q9UBT2)
Experiment: SAE HTRF enzyme assay
Assay type: biochemical
Conditions: for IC50: SAE inhibition, class symbols, legend in nM; for inhibition at 0.111 µM: read-out: Percent Inhibition; for pIC50: class symbols A/B/C
Outline: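 Sumoylation of Ubc9-GST by SAE was followed at low ATP (0.5 μM), pH 7.5, 24° C. for 105 min. Product was detected by HTRF with antibody pairs against Flag and GST tags.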

[1] = SAE inhibition at compound concentration 0.111 μM

recombinant human SAE enzyme, sequence (Q9UBT2 whole entry): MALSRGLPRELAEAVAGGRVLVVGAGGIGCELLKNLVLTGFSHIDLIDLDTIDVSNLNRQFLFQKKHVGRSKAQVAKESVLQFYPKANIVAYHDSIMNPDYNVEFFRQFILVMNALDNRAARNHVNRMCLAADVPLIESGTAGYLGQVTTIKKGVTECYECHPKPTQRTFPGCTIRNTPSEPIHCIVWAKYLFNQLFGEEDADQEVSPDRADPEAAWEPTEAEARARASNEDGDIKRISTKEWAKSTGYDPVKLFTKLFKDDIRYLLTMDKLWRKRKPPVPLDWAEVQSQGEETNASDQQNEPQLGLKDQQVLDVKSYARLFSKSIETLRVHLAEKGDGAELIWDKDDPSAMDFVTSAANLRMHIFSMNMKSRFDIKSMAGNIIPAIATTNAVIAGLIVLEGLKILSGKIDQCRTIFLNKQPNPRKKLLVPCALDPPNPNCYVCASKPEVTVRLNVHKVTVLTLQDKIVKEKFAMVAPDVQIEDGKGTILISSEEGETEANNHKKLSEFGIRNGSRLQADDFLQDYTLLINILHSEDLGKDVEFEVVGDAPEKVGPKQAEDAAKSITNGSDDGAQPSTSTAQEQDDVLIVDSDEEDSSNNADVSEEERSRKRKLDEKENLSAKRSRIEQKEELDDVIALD
recombinant human SAE enzyme, sequence (Q9UBE0 whole entry partner): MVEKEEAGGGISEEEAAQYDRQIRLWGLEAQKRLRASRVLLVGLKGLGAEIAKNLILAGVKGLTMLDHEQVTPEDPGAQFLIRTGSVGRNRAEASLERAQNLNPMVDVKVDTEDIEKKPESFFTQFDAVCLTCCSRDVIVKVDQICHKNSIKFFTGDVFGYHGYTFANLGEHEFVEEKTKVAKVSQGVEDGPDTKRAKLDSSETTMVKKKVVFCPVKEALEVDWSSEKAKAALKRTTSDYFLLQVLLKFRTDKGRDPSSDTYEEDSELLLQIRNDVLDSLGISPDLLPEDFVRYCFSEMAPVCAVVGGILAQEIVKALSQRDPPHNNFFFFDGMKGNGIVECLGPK

| SMILES | Percent Inhibition [1] | IC50 | inhibition at 0.111 µM (Concentration 0.111 μM) | pIC50 | Percent Inhibition (Concentration 0.111 μM) |
| --- | --- | --- | --- | --- | --- |
| Cc1nc2c(s1)[C@H](c1cc(C(=O)c3cncnc3N[C@@H]3C[C@H](COS(N)(=O)=O)[C@@H](O)C3)sc1C)OCC2 (single isomer, unassigned) [I-305b, [(1R,2S,4R)-2-hydroxy-4-{[5-({5-methyl-4-[(4S)-2-methyl-6,7-dihydro-4H-pyrano[4,3-d][1,3]thiazol-4-yl]-2-thienyl}carbonyl)pyrimidin-4-yl]amino}cyclopentyl]methyl sulfamate or [(1R,2S,4R)-2-hydroxy-4-{[5-({5-methyl-4-[(4R)-2-methyl-6,7-dihydro-4H-pyrano[4,3-d][1,3]thiazol-4-yl]-2-thienyl}carbonyl)pyrimidin-4-yl]amino}cyclopentyl]methyl sulfamate] | 98% | < 10 nM |  |  |  |
| Cc1sc(C(=O)c2cncnc2N[C@@H]2C[C@H](COS(N)(=O)=O)[C@@H](O)C2)cc1Cn1cc(Cl)cn1 [I-55, [(1R,2S,4R)-4-{[5-({4-[(4-chloro-1H-pyrazol-1-yl)methyl]-5-methyl-2-thienyl}carbonyl)pyrimidin-4-yl]amino}-2-hydroxycyclopentyl]methyl sulfamate] |  |  | 97% |  |  |
| Cc1oc(C(=O)c2cncnc2N[C@@H]2C[C@H](COS(N)(=O)=O)[C@@H](O)C2)cc1Cc1cccc(Cl)c1 [I-33, [(1R,2S,4R)-4-({5-[4-(3-chlorobenzyl)-5-methyl-2-furoyl]pyrimidin-4-yl}amino)-2-hydroxycyclopentyl]methyl sulfamate] |  |  | 100% | > 8.00 |  |
| CN[C@H](c1cccc(Cl)c1)c1csc(C(=O)c2cncnc2N[C@@H]2C[C@H](COS(N)(=O)=O)[C@@H](O)C2)c1 (single isomer, unassigned) [I-47b, [(1R,2S,4R)-4-{[5-({4-[(R)-(3-chlorophenyl)(methylamino)methyl]-2-thienyl}carbonyl)pyrimidin-4-yl]amino}-2-hydroxycyclopentyl]methyl sulfamate or [(1R,2S,4R)-4-{[5-({4-[(S)-(3-chlorophenyl)(methylamino)methyl]-2-thienyl}carbonyl)pyrimidin-4-yl]amino}-2-hydroxycyclopentyl]methyl sulfamate] |  |  |  | > 8.00 | 99 |
| NS(=O)(=O)OC[C@H]1C[C@@H](Nc2ncncc2C(=O)c2cc(CC3=CCOC3)cs2)C[C@@H]1O [I-193, {(1R,2S,4R)-4-[(5-{[4-(2,5-dihydrofuran-3-ylmethyl)-2-thienyl]carbonyl}pyrimidin-4-yl)amino]-2-hydroxycyclopentyl}methyl sulfamate] |  |  | 72% | 7.00 to 8.00 |  |
| NS(=O)(=O)OC[C@H]1C[C@@H](Nc2ncncc2C(=O)c2cc(C3(c4cccc(Cl)c4)CCCO3)cs2)C[C@@H]1O (single isomer, unassigned) [I-20a, [(1R,2S,4R)-4-{[5-({4-[(2S)-2-(3-chlorophenyl)tetrahydrofuran-2-yl]-2-thienyl}carbonyl)pyrimidin-4-yl]amino}-2-hydroxycyclopentyl]methyl sulfamate or [(1R,2S,4R)-4-{[5-({4-[(2R)-2-(3-chlorophenyl)tetrahydrofuran-2-yl]-2-thienyl}carbonyl)pyrimidin-4-yl]amino}-2-hydroxycyclopentyl]methyl sulfamate] |  |  |  | 7.00 to 8.00 | 81 |
| Cc1sc(C(=O)c2cncnc2N[C@@H]2C[C@H](COS(N)(=O)=O)[C@@H](O)C2)cc1[C@@H]1OCCc2ccsc21 (single isomer, unassigned) [I-269b, [(1R,2S,4R)-4-{[5-({4-[(7S)-4,7-dihydro-5H-thieno[2,3-c]pyran-7-yl]-5-methyl-2-thienyl}carbonyl)pyrimidin-4-yl]amino}-2-hydroxycyclopentyl]methyl sulfamate or [(1R,2S,4R)-4-{[5-({4-[(7R)-4,7-dihydro-5H-thieno[2,3-c]pyran-7-yl]-5-methyl-2-thienyl}carbonyl)pyrimidin-4-yl]amino}-2-hydroxycyclopentyl]methyl sulfamate] |  |  |  | 7.00 to 8.00 | 95 |
| NC(c1cccc(Cl)c1)c1cc(C(=O)c2cncnc2NC2CC(O)C(COS(N)(=O)=O)C2)sc1Cl (mixture of isomers) [I-15, [(1R,2S,4R)-4-{[5-({4-[(R)-amino(3-chlorophenyl)methyl]-5-chloro-2-thienyl}carbonyl)pyrimidin-4-yl]amino}-2-hydroxycyclopentyl]methyl sulfamate and [(1R,2S,4R)-4-{[5-({4-[(S)-amino(3-chlorophenyl)methyl]-5-chloro-2-thienyl}carbonyl)pyrimidin-4-yl]amino}-2-hydroxycyclopentyl]methyl sulfamate] |  |  |  | > 8.00 | 100 |
| NS(=O)(=O)OC[C@H]1C[C@@H](Nc2ncncc2C(=O)c2ccc(-c3ccccc3)o2)[C@H](O)[C@@H]1O [I-134, [(1R,2R,3S,4R)-2,3-dihydroxy-4-{[5-(5-phenyl-2-furoyl)pyrimidin-4-yl]amino}cyclopentyl]methyl sulfamate] |  |  | 94% | > 8.00 |  |
| NS(=O)(=O)OC[C@H]1C[C@@H](Nc2ncncc2C(=O)c2cc([C@@H]3NCCc4ccc(Cl)cc43)cs2)C[C@@H]1O (mixture of isomers) [I-274, [(1R,2S,4R)-4-{[5-({4-[(1R)-7-chloro-1,2,3,4-tetrahydroisoquinolin-1-yl]-2-thienyl}carbonyl)pyrimidin-4-yl]amino}-2-hydroxycyclopentyl]methyl sulfamate and [(1R,2S,4R)-4-{[5-({4-[(1S)-7-chloro-1,2,3,4-tetrahydroisoquinolin-1-yl]-2-thienyl}carbonyl)pyrimidin-4-yl]amino}-2-hydroxycyclopentyl]methyl sulfamate] |  |  |  | > 8.00 | 100 |
| NS(=O)(=O)OC[C@H]1C[C@@H](Nc2ncncc2C(=O)c2cc(C3OCCc4ccc(Cl)cc43)cs2)C[C@@H]1O (single isomer, unassigned) [I-261b, [(1R,2S,4R)-4-{[5-({4-[(1R)-7-chloro-3,4-dihydro-1H-isochromen-1-yl]-2-thienyl}carbonyl)pyrimidin-4-yl]amino}-2-hydroxycyclopentyl]methyl sulfamate or [(1R,2S,4R)-4-{[5-({4-[(1S)-7-chloro-3,4-dihydro-1H-isochromen-1-yl]-2-thienyl}carbonyl)pyrimidin-4-yl]amino}-2-hydroxycyclopentyl]methyl sulfamate] |  |  |  | > 8.00 | 99 |
| NS(=O)(=O)OC[C@H]1C[C@@H](Nc2ncncc2C(=O)c2cc([C@@H]3OCC(F)(F)c4ccc(Cl)cc43)cs2)C[C@@H]1O (single isomer, unassigned) [I-289a, [(1R,2S,4R)-4-{[5-({4-[(1R)-7-chloro-4,4-difluoro-3,4-dihydro-1H-isochromen-1-yl]-2-thienyl}carbonyl)pyrimidin-4-yl]amino}-2-hydroxycyclopentyl]methyl sulfamate or [(1R,2S,4R)-4-{[5-({4-[(1S)-7-chloro-4,4-difluoro-3,4-dihydro-1H-isochromen-1-yl]-2-thienyl}carbonyl)pyrimidin-4-yl]amino}-2-hydroxycyclopentyl]methyl sulfamate] | 16% | 100 to 1000 nM |  |  |  |
| Cc1cccc(Cc2coc(C(=O)c3cncnc3N[C@@H]3C[C@H](COS(N)(=O)=O)[C@@H](O)C3)c2)c1 [I-57, [(1R,2S,4R)-2-hydroxy-4-({5-[4-(3-methylbenzyl)-2-furoyl]pyrimidin-4-yl}amino)cyclopentyl]methyl sulfamate] |  |  | 98% |  |  |
